Values quoted from earlier work in patent US20160082019A1, “Drug Combinations to Treat Cancer” (EXELIXIS, INC., priority 2013, published 2016).

Details: cabozantinib alone; in some cases normalized; independent of PSA declines

COc1cc2nccc(Oc3ccc(NC(=O)C4(C(=O)Nc5ccc(F)cc5)CC4)cc3)c2cc1OC [Cabozantinib, N-(4-{[6,7-bis(methyloxy)quinolin-4-yl]oxy}phenyl)-N′-(4-fluorophenyl)cyclopropane-1,1-dicarboxamide]
uptake on bone scans: decrease uptake on bone scans
